According to ChEMBL document CHEMBL1201862, “PubChem BioAssay data set” (2004):
The source made the active and inactive calls.

What was measured:
[1] = molecular target: Alkaline phosphatase, placental type (Homo sapiens, UniProt P05187); assay: human placental alkaline phosphatase inhibition – biochemical, luminescence, confirmation (AID 1512); format: functional
[2] = molecular target: T1, Alkaline phosphatase, tissue-nonspecific isozyme (Homo sapiens, UniProt P05186); assay: potency against alkaline phosphatase TNAP – biochemical, luminescent, dose response, SAR follow-up (AID 1056)
T1 sequence (P05186 whole entry): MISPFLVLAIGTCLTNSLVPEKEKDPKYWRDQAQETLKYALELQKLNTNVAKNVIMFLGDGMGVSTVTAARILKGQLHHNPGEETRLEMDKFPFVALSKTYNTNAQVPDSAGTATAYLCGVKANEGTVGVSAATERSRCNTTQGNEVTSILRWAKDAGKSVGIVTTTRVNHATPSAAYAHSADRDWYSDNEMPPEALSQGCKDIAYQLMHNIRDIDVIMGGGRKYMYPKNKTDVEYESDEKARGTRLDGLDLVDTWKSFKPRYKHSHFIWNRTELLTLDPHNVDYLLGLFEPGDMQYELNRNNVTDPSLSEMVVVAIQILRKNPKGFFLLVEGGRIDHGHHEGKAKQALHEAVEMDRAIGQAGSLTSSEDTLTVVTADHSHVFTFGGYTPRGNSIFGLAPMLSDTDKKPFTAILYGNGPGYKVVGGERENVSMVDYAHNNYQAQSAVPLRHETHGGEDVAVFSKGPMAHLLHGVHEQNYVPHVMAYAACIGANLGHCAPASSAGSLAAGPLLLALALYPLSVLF

[3] = molecular target: T2, G-protein coupled receptor 55 (Homo sapiens, UniProt Q9Y2T6); assay: inhibition of LPI-stimulated GPR55 beta-arrestin translocation – imaging, U2OS, beta-arrestin-GFP, LPI agonist, primary screen (AID 2013); format: functional;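 also: antagonist potency measured as reduced agonist-driven arrestin aggregation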
[4] = molecular target: Troponin, cardiac muscle (Homo sapiens, UniProt P19429+P45379+P63316); assay: Fluorescence-based biochemical high throughput dose response assay for activators of the calcium sensitivity of cardiac Regulated Thin Filaments (RTF). [Related pubchem assays (depositor defined):AID493008, AID493018, AID504382, AID504383]; format: protein-complex assay
[5] = HepG2 cell cytotoxicity, dose response, cytotoxicity control for non-replicating M. tuberculosis project (AID 489018); format: functional; conditions: Mycobacterium tuberculosis
[6] = molecular target: T3, Microphthalmia-associated transcription factor (Homo sapiens, UniProt O75030); assay: reducers of TRPM1 reporter luminescence, concentration series – cell-based, SK-MEL-5, cherry-picked, set 3, MITF inhibitor project, dose response (AID 493073); format: functional;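 also: SK-MEL-5 melanoma cells with luciferase driven by the MITF target TRPM1 promoter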
T3 sequence (O75030 whole entry): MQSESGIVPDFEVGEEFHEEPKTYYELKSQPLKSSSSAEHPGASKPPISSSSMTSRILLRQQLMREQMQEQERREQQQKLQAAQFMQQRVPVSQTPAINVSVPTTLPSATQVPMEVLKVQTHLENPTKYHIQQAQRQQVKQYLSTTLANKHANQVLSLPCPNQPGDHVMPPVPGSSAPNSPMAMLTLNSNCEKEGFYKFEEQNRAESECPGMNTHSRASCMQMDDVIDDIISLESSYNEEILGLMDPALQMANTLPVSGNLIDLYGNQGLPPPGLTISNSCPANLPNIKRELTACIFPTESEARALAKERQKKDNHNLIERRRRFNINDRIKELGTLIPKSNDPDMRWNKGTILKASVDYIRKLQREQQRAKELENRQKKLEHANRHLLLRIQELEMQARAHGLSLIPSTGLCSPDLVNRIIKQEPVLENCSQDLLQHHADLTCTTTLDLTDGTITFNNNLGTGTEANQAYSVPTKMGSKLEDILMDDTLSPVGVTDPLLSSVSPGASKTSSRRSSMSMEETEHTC

[7] = molecular target: Paired box protein Pax-8 (Homo sapiens, UniProt Q06710); assay: PAX8 transcriptional activity inhibition in RMG-I – RMG-I cells, luciferase, cherry-pick, dose response (AID 687027); format: functional, cell-based;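 also: luciferase reporter driven by Pax8 target thyroperoxidase promoter measured by SteadyGlo luminescence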
[8] = cells; format: functional
[9] = Counterscreen for AddAB inhibitors: absorbance-based bacterial cell-based high throughput dose response assay for inhibitors of bacterial viability. [Related pubchem assays (depositor defined):AID435030, AID449728, AID449731, AID488942, AID488955, AID488956]; format: functional
[10] = THP-1 cell cytotoxicity, dose response, cytotoxicity control for non-replicating M. tuberculosis project (AID 489025); format: functional
[11] = Vero E6 cell cytotoxicity, dose response, cytotoxicity control for non-replicating M. tuberculosis project, secondary assay (AID 492998); format: functional, VeroE6; conditions: Vero C1008
[12] = molecular target: T4, Exodeoxyribonuclease V (Escherichia coli (strain K12), UniProt P04993+P07648+P08394); assay: RecBCD inhibition via phage-restricted bacterial growth – absorbance, V66 E. coli, mutant T4 phage, counter-screen for AddAB inhibitor project, dose response (AID 492957); format: functional, cell-based, Escherichia coli str. K-12 substr. MG1655
T4 sequence (P04993 whole entry): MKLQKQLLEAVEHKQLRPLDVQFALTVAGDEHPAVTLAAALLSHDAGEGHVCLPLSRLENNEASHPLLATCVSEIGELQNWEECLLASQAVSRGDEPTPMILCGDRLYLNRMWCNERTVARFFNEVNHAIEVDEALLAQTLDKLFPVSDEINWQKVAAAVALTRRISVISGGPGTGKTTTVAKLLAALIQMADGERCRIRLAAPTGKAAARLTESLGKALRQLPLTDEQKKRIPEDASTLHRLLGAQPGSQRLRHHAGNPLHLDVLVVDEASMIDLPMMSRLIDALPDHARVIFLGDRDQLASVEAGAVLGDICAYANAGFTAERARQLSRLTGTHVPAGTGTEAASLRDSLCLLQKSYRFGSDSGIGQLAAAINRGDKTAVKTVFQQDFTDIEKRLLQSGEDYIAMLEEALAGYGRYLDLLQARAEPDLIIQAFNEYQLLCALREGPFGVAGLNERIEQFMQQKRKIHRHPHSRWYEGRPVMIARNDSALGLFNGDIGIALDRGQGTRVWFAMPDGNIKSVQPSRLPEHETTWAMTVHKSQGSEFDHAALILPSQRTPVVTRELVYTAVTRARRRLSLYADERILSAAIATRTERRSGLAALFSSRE
T4 sequence (P07648 whole entry): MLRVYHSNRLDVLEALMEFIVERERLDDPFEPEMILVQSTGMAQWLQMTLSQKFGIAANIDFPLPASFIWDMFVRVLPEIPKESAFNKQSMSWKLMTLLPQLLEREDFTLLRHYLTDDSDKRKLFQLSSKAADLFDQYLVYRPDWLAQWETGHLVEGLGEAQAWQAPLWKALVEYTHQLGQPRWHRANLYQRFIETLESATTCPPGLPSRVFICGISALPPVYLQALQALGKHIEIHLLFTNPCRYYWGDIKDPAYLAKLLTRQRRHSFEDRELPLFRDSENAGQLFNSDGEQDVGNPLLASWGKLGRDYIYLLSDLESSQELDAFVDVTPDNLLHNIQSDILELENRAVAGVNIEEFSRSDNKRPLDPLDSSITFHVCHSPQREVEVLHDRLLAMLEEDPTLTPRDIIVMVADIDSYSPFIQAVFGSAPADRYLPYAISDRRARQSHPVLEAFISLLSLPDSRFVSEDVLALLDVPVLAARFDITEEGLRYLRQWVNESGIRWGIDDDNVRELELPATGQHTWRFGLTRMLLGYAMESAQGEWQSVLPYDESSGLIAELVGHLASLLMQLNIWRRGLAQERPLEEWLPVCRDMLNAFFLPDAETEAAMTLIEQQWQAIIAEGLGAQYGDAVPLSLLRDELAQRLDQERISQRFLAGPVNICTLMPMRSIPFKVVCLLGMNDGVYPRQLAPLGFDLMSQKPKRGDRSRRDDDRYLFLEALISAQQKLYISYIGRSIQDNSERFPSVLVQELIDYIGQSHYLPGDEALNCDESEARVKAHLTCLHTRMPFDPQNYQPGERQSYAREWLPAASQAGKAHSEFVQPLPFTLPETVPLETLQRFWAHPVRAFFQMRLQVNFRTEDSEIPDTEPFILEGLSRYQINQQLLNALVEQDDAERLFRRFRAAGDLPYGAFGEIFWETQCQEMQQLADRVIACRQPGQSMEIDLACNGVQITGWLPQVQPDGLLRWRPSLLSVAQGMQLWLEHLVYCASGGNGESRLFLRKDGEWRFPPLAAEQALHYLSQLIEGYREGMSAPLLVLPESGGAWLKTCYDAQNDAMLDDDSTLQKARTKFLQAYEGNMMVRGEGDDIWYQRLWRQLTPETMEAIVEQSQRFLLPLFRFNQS
T4 sequence (P08394 whole entry): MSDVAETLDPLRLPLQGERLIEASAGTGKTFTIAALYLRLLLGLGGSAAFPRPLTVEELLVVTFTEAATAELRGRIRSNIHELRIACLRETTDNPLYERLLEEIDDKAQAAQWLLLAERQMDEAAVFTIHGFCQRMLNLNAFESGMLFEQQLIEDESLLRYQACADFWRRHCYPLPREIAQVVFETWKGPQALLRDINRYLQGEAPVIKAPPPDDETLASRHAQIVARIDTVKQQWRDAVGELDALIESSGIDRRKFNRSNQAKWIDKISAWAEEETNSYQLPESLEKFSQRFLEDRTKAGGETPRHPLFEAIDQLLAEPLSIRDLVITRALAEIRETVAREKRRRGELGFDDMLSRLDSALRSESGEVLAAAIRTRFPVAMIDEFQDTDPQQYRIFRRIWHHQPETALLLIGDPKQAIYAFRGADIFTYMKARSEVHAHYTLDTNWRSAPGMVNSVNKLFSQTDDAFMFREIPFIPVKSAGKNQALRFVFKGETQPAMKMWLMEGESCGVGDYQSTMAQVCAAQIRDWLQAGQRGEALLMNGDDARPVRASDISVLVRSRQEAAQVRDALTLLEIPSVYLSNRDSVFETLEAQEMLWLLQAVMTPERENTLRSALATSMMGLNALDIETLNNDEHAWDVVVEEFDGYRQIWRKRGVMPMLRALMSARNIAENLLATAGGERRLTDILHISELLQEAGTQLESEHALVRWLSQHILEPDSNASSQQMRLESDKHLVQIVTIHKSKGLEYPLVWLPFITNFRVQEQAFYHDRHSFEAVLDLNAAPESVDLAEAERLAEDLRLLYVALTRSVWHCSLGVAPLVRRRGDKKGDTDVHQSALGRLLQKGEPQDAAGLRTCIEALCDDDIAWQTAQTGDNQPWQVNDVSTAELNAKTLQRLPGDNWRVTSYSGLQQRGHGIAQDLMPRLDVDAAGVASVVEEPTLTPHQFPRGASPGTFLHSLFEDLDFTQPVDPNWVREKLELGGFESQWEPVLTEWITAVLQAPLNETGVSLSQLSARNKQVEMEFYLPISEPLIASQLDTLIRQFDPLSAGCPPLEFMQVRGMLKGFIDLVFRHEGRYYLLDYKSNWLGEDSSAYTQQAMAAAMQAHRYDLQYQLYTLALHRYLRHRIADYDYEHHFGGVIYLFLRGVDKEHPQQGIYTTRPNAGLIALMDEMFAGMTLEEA

[13] = molecular target: Kappa-type opioid receptor (Homo sapiens, UniProt P41145); assay: SAR analysis of small molecule agonists of the kappa opioid receptor via a luminescent beta-arrestin assay - Set 3. [Related pubchem assays (depositor defined):AID1777, AID1785, AID1786, AID1966, AID2133, AID2136, AID2284, AID2500]; format: functional
[14] = molecular target: Glyceraldehyde-3-phosphate dehydrogenase (Homo sapiens, UniProt P04406)
[15] = NIH3T3 cell viability loss – ATP luminescence, mouse fibroblasts, counter-screen, dose response (AID 2010); format: functional, cell-based;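 also: cells exposed to compound for about 90 hours before reading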
[16] = Trypanosoma cruzi growth suppression in host cells – NIH3T3 host cells, beta-gal luminescence, confirmation (AID 2044); format: functional, cell-based;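 also: intracellular parasites grown in NIH/3T3 mouse fibroblasts as host cells; luminescent beta-galactosidase reporter signal from transgenic T. cruzi replicating inside host cells; inhibitors lower the luminescence signal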
[17] = molecular target: DNA dC->dU-editing enzyme APOBEC-3A (Homo sapiens, UniProt P31941); assay: A3A deaminase inhibition for selectivity – biochemical, dose response (AID 504722); format: functional
[18] = HGIII-sPLA2 enzyme inhibition potency – biochemical, QFRET, IC50, dose response (AID 743457);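 also: green fluorescence rise as the enzyme cleaves BODIPY PC-A2 in liposomes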
[19] = molecular target: DNA dC->dU-editing enzyme APOBEC-3G (Homo sapiens, UniProt Q9HC16); assay: Dose Response confirmation of small molecule APOBEC3G DNA Deaminase Inhibitors via a fluorescence-based single-stranded DNA deaminase assay. [Related pubchem assays (depositor defined):AID493012, AID493028]; format: functional
[20] = molecular target: T2, G-protein coupled receptor 55; assay: selective activators of receptor GPR55 – imaging, U2OS cells, beta-arrestin-GFP redistribution, primary screen (AID 1961); format: functional

T2 sequence (Q9Y2T6 whole entry): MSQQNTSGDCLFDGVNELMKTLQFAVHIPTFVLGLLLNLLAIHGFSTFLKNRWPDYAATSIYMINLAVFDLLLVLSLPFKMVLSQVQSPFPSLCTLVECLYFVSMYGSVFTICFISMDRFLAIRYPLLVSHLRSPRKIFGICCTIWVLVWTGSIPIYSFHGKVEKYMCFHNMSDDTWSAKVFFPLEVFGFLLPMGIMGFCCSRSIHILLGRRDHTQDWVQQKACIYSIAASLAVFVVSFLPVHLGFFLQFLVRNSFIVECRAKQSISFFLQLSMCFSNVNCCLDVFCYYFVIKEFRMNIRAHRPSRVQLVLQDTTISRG
Chain of Alkaline phosphatase, placental type (P05187 whole entry): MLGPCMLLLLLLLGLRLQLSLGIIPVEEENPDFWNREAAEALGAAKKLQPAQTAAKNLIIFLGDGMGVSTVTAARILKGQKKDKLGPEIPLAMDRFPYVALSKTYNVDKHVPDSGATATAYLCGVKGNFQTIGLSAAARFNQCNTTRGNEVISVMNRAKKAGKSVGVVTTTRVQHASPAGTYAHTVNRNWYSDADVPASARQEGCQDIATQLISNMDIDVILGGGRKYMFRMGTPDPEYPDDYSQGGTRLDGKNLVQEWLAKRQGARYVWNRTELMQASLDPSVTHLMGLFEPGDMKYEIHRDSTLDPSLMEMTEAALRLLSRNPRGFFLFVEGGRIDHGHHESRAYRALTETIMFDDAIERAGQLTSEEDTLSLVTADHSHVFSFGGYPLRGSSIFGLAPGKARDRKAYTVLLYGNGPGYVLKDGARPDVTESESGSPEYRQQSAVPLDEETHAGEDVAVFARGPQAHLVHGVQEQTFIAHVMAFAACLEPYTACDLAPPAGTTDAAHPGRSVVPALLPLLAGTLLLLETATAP
Chain of Kappa-type opioid receptor (P41145 whole entry): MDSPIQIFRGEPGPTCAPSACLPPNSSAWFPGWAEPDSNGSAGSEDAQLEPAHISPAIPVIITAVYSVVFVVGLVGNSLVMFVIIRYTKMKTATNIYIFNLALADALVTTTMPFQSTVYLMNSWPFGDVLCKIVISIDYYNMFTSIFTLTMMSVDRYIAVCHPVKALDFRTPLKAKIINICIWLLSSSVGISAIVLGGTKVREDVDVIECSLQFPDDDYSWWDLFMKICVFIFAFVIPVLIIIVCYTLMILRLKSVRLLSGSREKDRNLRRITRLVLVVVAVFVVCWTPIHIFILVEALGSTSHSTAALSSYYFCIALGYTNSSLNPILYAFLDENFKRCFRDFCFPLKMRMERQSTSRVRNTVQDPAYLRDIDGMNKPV
Chain of Glyceraldehyde-3-phosphate dehydrogenase (P04406 whole entry): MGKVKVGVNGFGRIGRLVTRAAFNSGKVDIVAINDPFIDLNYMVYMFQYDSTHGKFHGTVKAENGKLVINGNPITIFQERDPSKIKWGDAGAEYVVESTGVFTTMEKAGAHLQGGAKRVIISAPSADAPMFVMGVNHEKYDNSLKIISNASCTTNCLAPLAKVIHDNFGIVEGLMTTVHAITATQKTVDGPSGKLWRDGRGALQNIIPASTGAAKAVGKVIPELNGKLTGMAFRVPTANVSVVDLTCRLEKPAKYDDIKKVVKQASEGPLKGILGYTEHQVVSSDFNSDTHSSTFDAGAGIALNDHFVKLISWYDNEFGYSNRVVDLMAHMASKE
Chain of DNA dC->dU-editing enzyme APOBEC-3G (Q9HC16 whole entry): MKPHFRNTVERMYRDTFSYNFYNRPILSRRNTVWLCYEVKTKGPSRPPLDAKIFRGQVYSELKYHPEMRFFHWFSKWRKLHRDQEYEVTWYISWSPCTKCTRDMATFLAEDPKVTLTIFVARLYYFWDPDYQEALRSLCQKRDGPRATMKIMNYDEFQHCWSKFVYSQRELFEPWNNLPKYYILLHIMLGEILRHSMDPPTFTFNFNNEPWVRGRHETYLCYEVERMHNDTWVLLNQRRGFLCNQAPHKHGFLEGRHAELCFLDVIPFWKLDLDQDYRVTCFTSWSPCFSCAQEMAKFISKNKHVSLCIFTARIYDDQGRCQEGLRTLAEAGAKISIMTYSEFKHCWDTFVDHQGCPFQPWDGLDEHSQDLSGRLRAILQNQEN
Chain of Paired box protein Pax-8 (Q06710 whole entry): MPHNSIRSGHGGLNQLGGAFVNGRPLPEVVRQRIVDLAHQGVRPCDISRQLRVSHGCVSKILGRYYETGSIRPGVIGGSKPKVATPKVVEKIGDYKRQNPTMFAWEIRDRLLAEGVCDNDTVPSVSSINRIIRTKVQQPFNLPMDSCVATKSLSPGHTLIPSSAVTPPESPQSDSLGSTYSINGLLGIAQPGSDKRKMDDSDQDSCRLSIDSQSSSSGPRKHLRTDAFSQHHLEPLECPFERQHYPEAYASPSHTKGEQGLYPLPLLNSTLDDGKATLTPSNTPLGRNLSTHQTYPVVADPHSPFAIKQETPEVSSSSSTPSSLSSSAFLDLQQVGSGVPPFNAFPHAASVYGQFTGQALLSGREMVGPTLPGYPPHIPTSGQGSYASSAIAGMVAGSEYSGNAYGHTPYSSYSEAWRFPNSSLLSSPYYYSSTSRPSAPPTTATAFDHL
Chain of DNA dC->dU-editing enzyme APOBEC-3A (P31941 whole entry): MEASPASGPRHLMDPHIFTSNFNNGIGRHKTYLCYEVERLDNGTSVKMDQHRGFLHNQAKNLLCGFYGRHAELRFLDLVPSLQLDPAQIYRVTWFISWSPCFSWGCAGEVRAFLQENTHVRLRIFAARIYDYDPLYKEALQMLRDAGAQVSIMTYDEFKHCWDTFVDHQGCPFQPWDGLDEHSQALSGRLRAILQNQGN

## Cc1cc(NCC(=O)c2ccc(O)c(O)c2)[nH]n1
[1]
  IC50: 5.71 µM (active)
[2]
  IC50: 18.3 µM (active)

## Cn1cccc1/C=C1\C(=O)NC(=O)N(Cc2ccccc2Cl)C1=O
[3]
  IC50: 0.978 µM (active)

## CCCNC(=O)Cn1c(=O)/c(=C\c2ccc(-c3ccc([N+](=O)[O-])cc3)o2)s/c1=C\C(=O)C(C)(C)C
[4]
  EC50: 0.165 µM (active)

## CC1(C)CC(=O)C(/C=N/c2cc(C(=O)c3ccccc3)ccc2N)=C(O)C1
[4]
  EC50: 20.4 µM (inactive)

## CC(C)C(=O)N1CCN(c2ccc(NC(=O)c3ccc([N+](=O)[O-])o3)cc2)CC1
[5]
  CC50: 9.53 µM (active)
[6]
  AC50: 7.98 µM (active)
[7]
  AC50: 4.48 µM (active)
[8]
  IC50: 0.54 µM (active)
[9]
  IC50: > 119 µM (inactive)
[10]
  CC50: 5.52 µM (active)
[11]
  CC50: 3.34 µM (active)
[12]
  IC50: > 119 µM (inactive)

## Clc1ccccc1Cn1c(SCc2ccc(Br)cc2)nnc1-c1ccccn1
[13]
  EC50: 14.2 µM (inactive)

## Nc1nc(Cc2ccc3ccccc3c2)n(-c2ccccc2)n1
[14]
  IC50: > 100 µM (not active)
[1]
  IC50: > 100 µM (inactive)
[2]
  IC50: > 100 µM (inactive)

## CCn1nnc(NC(=O)c2ccc([N+](=O)[O-])o2)n1
[5]
  CC50: > 20 µM (active)
[15]
  EC50: > 60 µM (inconclusive)
[16]
  EC50: 0.179 µM (active)
[9]
  IC50: 61.7 µM (inactive)
[10]
  CC50: 38.5 µM (active)
[11]
  CC50: 4.8 µM (active)
[12]
  IC50: > 118 µM (inactive)

## CCn1c(S)nnc1-c1cccc(Br)c1
[17]
  IC50: > 100 µM (inactive)
[18]
  IC50: > 122 µM (inactive)
[19]
  IC50: 4.37 µM (active)

## O=C(Oc1ccccc1/C=C\C(=O)c1cc2ccccc2o1)c1ccccc1
[20]
  EC50: 15.4 µM (inactive)
